This passage reports tumor growth inhibition and viability results from PMC9629815, “MK256 is a novel CDK8 inhibitor with potent antitumor activity in AML through downregulation of the STAT pathway” (Oncotarget, 2022).

The structures appear in SMILES notation.

For one assay, the system named is MOLM-14 xenograft model. Nature of the assay: MOLM-14 xenograft efficacy study, combination with venetoclax. The settings on record: venetoclax 25 mg/kg alone, oral once a day, 5 days on/2 days off. In kind it is in vivo, NOD SCID mice.
A further assay deals with MOLM-14 cells. Description: Cell viability dose-response matrix of MK256 and venetoclax. The class given is cell-based. The settings on record: Homo sapiens, MK256 0.0 nM, 72 hrs, read-out: percentage of cell viability. The text has this: Our earlier experiments showing the clearly increasing expression of BCL-2 in the MOLM-14 cell line led us to ask if there was any combinational effect between MK256 and a BCL-2 inhibitor in MOLM-14 cells. To address this question, we chose venetoclax (ABT-199), an FDA-approved BCL-2 inhibitor for AML and CLL, for the combination study. We treated MOLM-14 cells with MK256 and venetoclax at a series of concentration combinations, measured cell viability, and reported the data in a dose-response matrix (Figure 8). […] We also investigated the apoptotic effect of the combination treatment in the MOLM-14 cell line (Figure 10B).
Figure 10 (A) Dose-response matrix of percentage of cell viability of 10,000 MOLM-14 cells after 72 hrs treatment of MK256 and venetoclax at various concentration combinations. (B) Annexin V staining of 10,000 MOLM-14 cells after 72 hrs treatment of MK256 and venetoclax(ABT199) at various concentration combinations. Status of cells are labeled in the graph at the upper left corner. (C) Tumor growth of MOLM-14 xenograft model. Groups of control; ABT199 (25 mg/kg); ABT199 (25 mg/kg) + MK256 (10 mg/kg); ABT199 25 mg/kg + MK256 (50 mg/kg) were shown in straight line, dotted line, 3 dashed line and 2 dashed line, respectively. ^*** P < 0.001. (D) Body weight percentage of MOLM-14 tumor model. […]

Procedure for MOLM-14 xenograft model: In an efficacy study of the combination of MK256 and venetoclax in the MOLM-14 tumor model, we compared venetoclax 25 mg/kg, venetoclax 25 mg/kg + MK256 10 mg/kg, and venetoclax 25 mg/kg + MK256 50 mg/kg. Compounds were given orally once a day on a 5 days on/2 days off schedule.
Female NOD SCID mice were purchased from Charles River Laboratories (Wilmington, USA) or bred at the animal facilities of the University of California San Francisco. All animal experiments were carried out under protocols approved by the Institutional Animal Care and Use Committee of the University of California San Francisco. For MOLM-14 model, 200 ul of 1 × 10^6 cells combined with matrigel (v/v, 1:1) were injected subcutaneously in the right flank of NODSCID mice. Tumors were allowed to grow for two weeks to reach a tumor volume about 200 mm^3 before mice were randomly grouped. The animals were treated for three weeks on a 5 days on/2 days off schedule by oral gavage with MK256 (dissolved in saline) alone or in combination with Venetoclax (dissolved in 5% DMSO + 50% PEG 300 + 5% Tween 80 + ddH2O). […] In the combination study, MK256 (10 or 50 mg/kg) and was coadministered with Venetoclax (25 mg/kg) once a day. Tumor volume and body weight were monitored once every 3 days. Tumor volume was calculated as L × W^2/2, where L and W were the length and width of the tumor, respectively.

Take `CC1(C)CCC(CN2CCN(c3ccc(C(=O)NS(=O)(=O)c4ccc(NCC5CCOCC5)c([N+](=O)[O-])c4)c(Oc4cnc5[nH]ccc5c4)c3)CC2)=C(c2ccc(Cl)cc2)C1` [Venetoclax, venetoclax, reference compound]: the tumor growth inhibition in the assay on MOLM-14 xenograft model came out at 15%. For the same compound, the viability (commonly a per cent measure of how many cells are alive, often set against a control) at 0.0002 µM in the assay with MOLM-14 cells (Venetoclax 0.2 nM) was determined as 65%. The viability at 0.0014 µM with MOLM-14 cells (Venetoclax 1.4 nM) was determined as 45%. Besides, in the assay with MOLM-14 cells (Venetoclax 4.1 nM), the viability at 0.0041 µM was 26%. Further, the viability at 0.0123 µM in the assay with MOLM-14 cells (Venetoclax 12.3 nM) stood at 12%. Further, the viability at 0.037 µM in the assay with MOLM-14 cells (Venetoclax 37 nM) was found to be 8%. In addition, the viability at 0.1111 µM with MOLM-14 cells (Venetoclax 111.1 nM) amounted to 7%. Further, the viability at 0.3333 µM in the assay with MOLM-14 cells (Venetoclax 333.3 nM) was determined as 5%. Also, the viability at 1 µM in the assay on MOLM-14 cells (Venetoclax 1000 nM) came to 2%. The viability at 3 µM in the assay with MOLM-14 cells (Venetoclax 3000 nM) is 0%.
